Species: Rattus norvegicus
Assay: Open TG-GATES - Regimen: Single
Format: toxicity, organism-based, Sprague-Dawley
Parameters: regimen Single, gender Male, age 6 weeks
Conditions: in vivo, po, route gavage; for gamma-GTP / ALP / ALT / AST / BUN / CRE / Ca / Cl / DBIL / GLC / IP / K / LDH / Na / PL / RALB / TBIL / TC / TG / TP: tissue Plasma; for APTT / Bas / Eos / Fbg / Hb / Ht / Lym / MCH / MCHC / MCV / Mono / Neu / PT / Plat / RBC / Ret: tissue Blood; for KIDNEY_L / KIDNEY_R / KIDNEY_TOTAL: tissue Kidney; for LIVER: tissue Liver
[1] = 1000 mg/kg, 3 h, dose level High
[2] = 1000 mg/kg, 6 h, dose level High
[3] = 1000 mg/kg, 9 h, dose level High
[4] = 1000 mg/kg, 24 h, dose level High

COc1ccc2[nH]c([S+]([O-])Cc3ncc(C)c(OC)c3C)nc2c1 (centres undefined) [OMEPRAZOLE]
gamma-GTP (300 mg/kg, 24 h, dose level Middle): 1 IU/L
TERMINAL_BW [1]: 220.8 g
APTT [1]: 18.6 s
Bas [1]: 0%
Eos [1]: 1%
Fbg [1]: 201.8 mg/dL
Hb [1]: 12.4 g/dL
Ht [1]: 36.3%
Lym [1]: 74.8%
MCH [1]: 21.2 pg
MCHC [1]: 34.3%
MCV [1]: 61.9 fL
Mono [1]: 3%
Neu [1]: 21%
PT [1]: 13.3 s
Plat [1]: 120.5 x10_4/uL
RBC [1]: 586.6 x10_4/ul
Ret [1]: 6.8%
KIDNEY_L [1]: 1 g
KIDNEY_R [1]: 1 g
KIDNEY_TOTAL [1]: 2 g
LIVER [1]: 9.8 g
ALP [1]: 966.6 IU/L
ALT [1]: 31.6 IU/L
AST [1]: 66 IU/L
BUN [1]: 11.2 mg/dL
CRE [1]: 0.4 mg/dL
Ca [1]: 10.2 mg/dL
Cl [1]: 100.6 meq/L
DBIL [1]: 0.072 mg/dL
GLC [1]: 208.8 mg/dL
IP [1]: 9.2 mg/dL
K [1]: 4 meq/L
LDH [1]: 174.6 IU/L
Na [1]: 140 meq/L
PL [1]: 140.8 mg/dL
RALB [1]: 3.3 g/dL
TBIL [1]: 0.1 mg/dL
TC [1]: 73.4 mg/dL
TG [1]: 56.8 mg/dL
TP [1]: 5.4 g/dL
gamma-GTP [1]: 0.8 IU/L
TERMINAL_BW [2]: 221 g
APTT [2]: 19.3 s
Bas [2]: 0%
Eos [2]: 1.2%
Fbg [2]: 208.8 mg/dL
Hb [2]: 12.9 g/dL
Ht [2]: 37.2%
Lym [2]: 70.6%
MCH [2]: 21.5 pg
MCHC [2]: 34.9%
MCV [2]: 61.8 fL
Mono [2]: 4.4%
Neu [2]: 23.2%
PT [2]: 13.2 s
Plat [2]: 129.9 x10_4/uL
RBC [2]: 602.4 x10_4/ul
Ret [2]: 7.1%
KIDNEY_L [2]: 1 g
KIDNEY_R [2]: 1.1 g
KIDNEY_TOTAL [2]: 2.1 g
LIVER [2]: 9.8 g
ALP [2]: 940.2 IU/L
ALT [2]: 27 IU/L
AST [2]: 65.6 IU/L
BUN [2]: 10 mg/dL
CRE [2]: 0.4 mg/dL
Ca [2]: 10.2 mg/dL
Cl [2]: 100.8 meq/L
DBIL [2]: 0.072 mg/dL
GLC [2]: 192.2 mg/dL
IP [2]: 9.7 mg/dL
K [2]: 4 meq/L
LDH [2]: 178.8 IU/L
Na [2]: 139.8 meq/L
PL [2]: 145.8 mg/dL
RALB [2]: 3.3 g/dL
TBIL [2]: 0.1 mg/dL
TC [2]: 78.8 mg/dL
TG [2]: 57 mg/dL
TP [2]: 5.5 g/dL
gamma-GTP [2]: 1.2 IU/L
TERMINAL_BW [3]: 219.2 g
APTT [3]: 18.3 s
Bas [3]: 0%
Eos [3]: 1%
Fbg [3]: 228.6 mg/dL
Hb [3]: 12.8 g/dL
Ht [3]: 37.1%
Lym [3]: 75.8%
MCH [3]: 21.3 pg
MCHC [3]: 34.6%
MCV [3]: 61.4 fL
Mono [3]: 3.4%
Neu [3]: 19%
PT [3]: 12.9 s
Plat [3]: 120.2 x10_4/uL
RBC [3]: 603.8 x10_4/ul
Ret [3]: 6.4%
KIDNEY_L [3]: 1 g
KIDNEY_R [3]: 1 g
KIDNEY_TOTAL [3]: 1.9 g
LIVER [3]: 9.6 g
ALP [3]: 705 IU/L
AST [3]: 62 IU/L
BUN [3]: 8 mg/dL
CRE [3]: 0.3 mg/dL
Ca [3]: 10.2 mg/dL
Cl [3]: 100.8 meq/L
DBIL [3]: 0.08 mg/dL
GLC [3]: 195.2 mg/dL
IP [3]: 10 mg/dL
K [3]: 3.8 meq/L
LDH [3]: 174.4 IU/L
Na [3]: 141 meq/L
PL [3]: 153.2 mg/dL
RALB [3]: 3.5 g/dL
TBIL [3]: 0.1 mg/dL
TC [3]: 80.4 mg/dL
TG [3]: 59.8 mg/dL
TP [3]: 5.5 g/dL
gamma-GTP [3]: 0.6 IU/L
TERMINAL_BW [4]: 226 g
APTT [4]: 19.9 s
Bas [4]: 0%
Eos [4]: 1%
Fbg [4]: 207.8 mg/dL
Hb [4]: 12.9 g/dL
Ht [4]: 37.7%
Lym [4]: 81.4%
MCH [4]: 21 pg
MCHC [4]: 34.1%
MCV [4]: 61.6 fL
Mono [4]: 4%
Neu [4]: 13.4%
PT [4]: 13.1 s
Plat [4]: 129.5 x10_4/uL
RBC [4]: 613.8 x10_4/ul
Ret [4]: 6.2%
KIDNEY_L [4]: 1 g
KIDNEY_R [4]: 1 g
KIDNEY_TOTAL [4]: 2.1 g
LIVER [4]: 12.1 g
ALP [4]: 924 IU/L
ALT [4]: 32.6 IU/L
AST [4]: 64.8 IU/L
BUN [4]: 11.2 mg/dL
CRE [4]: 0.4 mg/dL
Ca [4]: 10.1 mg/dL
Cl [4]: 100.6 meq/L
DBIL [4]: 0.1 mg/dL
GLC [4]: 200.4 mg/dL
IP [4]: 9.2 mg/dL
K [4]: 4.2 meq/L
LDH [4]: 230 IU/L
Na [4]: 140.6 meq/L
PL [4]: 162.8 mg/dL
RALB [4]: 3.4 g/dL
TBIL [4]: 0.2 mg/dL
TC [4]: 83.4 mg/dL
TG [4]: 169.2 mg/dL
TP [4]: 5.4 g/dL
gamma-GTP [4]: 1 IU/L

From ChEMBL document CHEMBL3885861, “Open TG-GATES”
